According to US20240335371A1, “MAGNESIUM SULFATE AND FORSKOLIN FOR TREATMENT OF SEXUAL DISORDERS AND BENIGN PROSTATIC HYPERPLASIA” (State-of-the-Art Technologies, Inc., priority 2023, published 2024):
Where two headings read alike, the source gives them in different places.

What was measured:
female low libido = conditions: cited from earlier work; for side effects: in vivo
ED = conditions: cited from earlier work
[1] = test system: penis or female genitalia; test: Topical or transdermal administration of magnesium sulfate or forskolin to male and female subjects
Source text: The composition is generally applied generously to the penis and massaged thoroughly. In females, the composition may be applied to the female genitals and massaged. In various embodiments, the composition may also be applied on a penis or sex toy or suppository inserted into the vagina or ano-rectal region, or as a condom lubricant, penile lubricant, vaginal lubricant or anal lubricant.

[2] = cited from earlier work

## CCCC[C@H](NC(C)=O)C(=O)N[C@H]1CC(=O)NCCCC[C@@H](C(=O)O)NC(=O)[C@H](Cc2c[nH]c3ccccc23)NC(=O)[C@H](CCCN=C(N)N)NC(=O)[C@@H](Cc2ccccc2)NC(=O)[C@H](Cc2cnc[nH]2)NC1=O [Bremelanotide]
Female low libido
  side effects: Nausea is a common side effect
Female low libido; self-administered injection about 45 minutes before a sexual encounter
  effect on number of satisfying sexual events compared to placebo: minimal effect

## CCCCC[C@H](O)/C=C/[C@H]1[C@H](O)CC(=O)[C@@H]1CCCCCCC(=O)O [alprostadil]
ED; intraurethral deposition
  efficacy in ED: not effective in all patients

## CN1CCc2cccc3c2[C@H]1Cc1ccc(O)c(O)c1-3 [apomorphine]
ED; oral and sublingual therapies
  efficacy in ED: neither compound has demonstrated efficacy across a broad range of subjects

## O=c1[nH]c2ccccc2n1CCN1CCN(c2cccc(C(F)(F)F)c2)CC1 [flibanserin]
Female low libido
  side effects: sleepiness and fainting
Female low libido; oral pill taken daily
  effect compared to placebo: minimal compared to placebo

## C=C[C@@]1(C)CC(=O)[C@]2(O)[C@@]3(C)[C@@H](O)CCC(C)(C)[C@@H]3[C@H](O)[C@H](OC(C)=O)[C@@]2(C)O1 [forskolin, 7beta-acetoxy-8, 13-epoxy-1a, 6β, 9a-trihydroxy-labd-14-en-11-one]
[1]; human, in vivo
  systemic side effects or drug interactions: no systemic side effects or drug interactions
[2]
  lipid solubility: lipid-soluble
[2]; water
  solubility in water: water soluble

## O=[N+]([O-])OCC(CO[N+](=O)[O-])O[N+](=O)[O-] [glyceryl trinitrate (GTN), glyceryl trinitrate]
ED; patches applied to the penis
  efficacy in ED and side effects: effective but produces side effects in both patient and partner

## O=S(=O)([O-])[O-].[Mg+2] [magnesium sulfate]
[1]; administered topically or by transdermal delivery
  systemic side effects or drug interactions: no systemic side effects or drug interactions
[1]; topical administration
  taste of magnesium in mouth after topical administration (increased blood levels): tasted magnesium in their mouth within one minute
[1]; topical or transdermal administration, males and females
  testosterone and libido: increased testosterone with increased libido in both males and females lasting for several weeks
[1]; topical or transdermal application to the penis
  increase in penile length, size and turgidity versus control gel (KY jelly): significantly exceeds that obtained by topical or transdermal application of a control gel

## Cc1ccc(N(CC2=NCCN2)c2cccc(O)c2)cc1 [phentolamine]
ED; oral and sublingual therapies
  efficacy in ED: neither compound has demonstrated efficacy across a broad range of subjects
